Structures can show the parent of a compound that is named as a salt.
| Structure (SMILES) | melting point [°C] |
| --- | --- |
| Cc1ccccc1-c1cnc(Nc2ccccn2)s1 [Compound 5-6, Pyridin-2-yl-(5-o-tolyl-thiazol-2-yl)-amine] | 155 to 160 |
| Cc1cccc(-c2cnc(Nc3ccccn3)s2)c1 [Compound 5-7, Pyridin-2-yl-(5-m-tolyl-thiazol-2-yl)-amine] | 204 to 205 |
| COC(=O)c1cccc(Nc2ncc(-c3ccccc3)s2)n1 [Compound 4-6, 6-(5-Phenyl-thiazol-2-ylamino)-pyridine-2-carboxylic Acid Methyl Ester] | 231 to 232 |
| FC(F)(F)c1cccc(-c2cnc(Nc3ccccn3)s2)c1 [Compound 5-15, Pyridin-2-yl-[5-(3-trifluoromethyl-phenyl)-thiazol-2-yl]-amine] | 242 to 244 |
| FC(F)(F)c1ccccc1-c1cnc(Nc2ccccn2)s1 [Compound 5-14, Pyridin-2-yl[5-(2-trifluoromethyl-phenyl)-thiazol-2-yl]-amine] | 195 to 203 |
| FC(F)(F)c1ccc(-c2cnc(Nc3ccccn3)s2)cc1 [Compound 5-16, Pyridin-2-yl-[5-(4-trifluoromethyl-phenyl)-thiazol-2-yl]-amine] | > 250 |

The next lines start with the values.

| melting point [°C] | Structure (SMILES) |
| --- | --- |
| > 250 | Clc1ccc(-c2cnc(Nc3ccccn3)s2)cc1 [Compound 5-23, [5-(4-Chloro-phenyl)-thiazol-2-yl]-pyridin-2-yl-amine] |
| 223.5 to 226 | c1ccc(Nc2ncc(-c3cccc4ccccc34)s2)nc1 [Compound 5-9, (5-Naphthalen-1-yl-thiazol-2-yl)-pyridin-2-yl-amine] |
| 213 to 215 | Clc1ccccc1-c1cnc(Nc2ccccn2)s1 [Compound 5-21, [5-(2-Chloro-phenyl)-thiazol-2-yl]-pyridin-2-yl-amine] |
| > 220 | Brc1ccc(Nc2ncc(-c3ccccc3)s2)nc1 (as salt: HBr) [Compound 4-4, (5-Bromo-pyridin-2-yl)-(5-phenyl-thiazol-2-yl)-amine] |
| 113 | CCc1cnc(Nc2ccccn2)s1 [Compound 4-18, (5-Ethyl-thiazol-2-yl)-pyridin-2-yl-amine] |
| > 250 | Fc1cccc(-c2cnc(Nc3ccccn3)s2)c1 [Compound 5-19, [5-(3-Fluoro-phenyl)-thiazol-2-yl]-pyridin-2-yl-amine] |
| 239 to 240 | Fc1ccc(-c2cnc(Nc3ccccn3)s2)cc1 [Compound 5-20, [5-(4-Fluoro-phenyl)-thiazol-2-yl]-pyridin-2-yl-amine] |
| 227 to 228 | Fc1ccccc1-c1cnc(Nc2ccccn2)s1 [Compound 5-18, [5-(2-Fluoro-phenyl)-thiazol-2-yl]-pyridin-2-yl-amine] |
| > 250 | Clc1ccc(-c2cnc(Nc3ccccn3)s2)cc1Cl [Compound 5-24, [5-(3,4-dichloro-phenyl)-thiazol-2-yl]-pyridin-2-yl-amine] |
